According to the supplement of paper PMC10307832:

Assays:
Experiment in all cases: relative viability (nuclei count vs DMSO), 5 days (fraction); higher = more cells survive
[1] = compound: CC1=CC=C(C=C1)C(=O)CN2C3=C(CCCC3)SC2=N [Pifithrin_alpha] + O=C(CCCCCCC(=O)Nc1ccccc1)NO [Vorinostat] (partner 1 µM)
Summary of the method: (§1)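 For relative viability, nuclei counts in treated wells were divided by those in vehicle wells. Lung cancer cell lines had been pin-tool dosed in 1536-well plates the day after seeding and cultured for 5 days, then fixed and stained in one step (final 0.05% Triton X-100, 1% formaldehyde, 1 ug/ml Hoechst) and imaged at 4×. Doses were one drug alone or a fixed anchor-drug dose plus five library-drug doses (not always all listed) in √10 steps, and values are duplicate-plate medians.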

[2] = compound: CC1=CC=C(C=C1)C(=O)CN2C3=C(CCCC3)SC2=N [Pifithrin_alpha] + Cc1cc(Nc2cc(N3CCN(C)CC3)nc(Sc3ccc(NC(=O)C4CC4)cc3)n2)n[nH]1 [Tozasertib] (partner 0.1 µM)
Summary of the method: as §1

Bemcentinib + Phenformin = compound: Nc1nc(Nc2ccc3c(c2)CC[C@@H](N2CCCC2)CC3)nn1-c1cc2c(nn1)-c1ccccc1CCC2 [Bemcentinib] + N=C(N)NC(=N)NCCc1ccccc1 [Phenformin] (partner 250 µM)
Summary of the method: as §1

Axitinib + Linsitinib = compound: CNC(=O)c1ccccc1Sc1ccc2c(/C=C/c3ccccn3)n[nH]c2c1 [Axitinib] + C[C@]1(O)C[C@@H](c2nc(-c3ccc4ccc(-c5ccccc5)nc4c3)c3c(N)nccn32)C1 [Linsitinib] (partner 1 µM)
Summary of the method: as §1

| Cell Line | relative viability ([1]; first compound 1 µM) | relative viability ([1]; first compound 3.162 µM) | relative viability ([1]; first compound 10 µM) | relative viability ([1]; first compound 100 µM) | relative viability ([2]; first compound 1 µM) | relative viability ([2]; first compound 3.162 µM) | relative viability ([2]; first compound 10 µM) | relative viability ([2]; first compound 100 µM) | relative viability (Bemcentinib + Phenformin; first compound 0.04 µM) | relative viability (Bemcentinib + Phenformin; first compound 0.1265 µM) | relative viability (Bemcentinib + Phenformin; first compound 0.4 µM) | relative viability (Bemcentinib + Phenformin; first compound 1.265 µM) | relative viability (Bemcentinib + Phenformin; first compound 4 µM) | relative viability (Axitinib + Linsitinib; first compound 0.005 µM) | relative viability (Axitinib + Linsitinib; first compound 0.01581 µM) | relative viability (Axitinib + Linsitinib; first compound 0.05 µM) | relative viability (Axitinib + Linsitinib; first compound 0.1581 µM) | relative viability (Axitinib + Linsitinib; first compound 0.5 µM) | relative viability ([1]; first compound 31.62 µM) | relative viability ([2]; first compound 31.62 µM) |
| --- | --- | --- | --- | --- | --- | --- | --- | --- | --- | --- | --- | --- | --- | --- | --- | --- | --- | --- | --- | --- |
| HCC-366 | 0.252 | 0.204 | 0.171 | 0.209 | 0.0661 | 0.0593 | 0.0876 | 0.0623 | 0.604 | 0.63 | 0.638 | 0.653 | 0.587 | 0.673 | 0.615 | 0.776 | 0.662 | 0.842 |  |  |
| HCC-827 | 0.156 | 0.894 | 0.765 | 0.787 | 0.422 | 0.522 | 0.381 | 0.353 | 0.413 | 0.375 | 0.43 | 0.431 | 0.419 | 0.927 | 0.907 | 0.963 | 0.977 | 0.999 | 0.709 | 0.337 |
| HOP-62 | 0.436 | 0.603 | 0.645 | 0.658 | 0.385 | 0.584 | 0.355 | 0.344 | 0.694 | 0.707 | 0.834 | 0.704 | 0.645 | 0.961 | 0.977 | 0.777 | 0.894 | 1.06 | 0.375 | 0.358 |
| IA-LM |  | 1.16 |  | 0.907 |  |  |  |  |  |  |  |  |  | 0.546 | 0.437 | 0.564 | 0.665 | 0.542 | 0.913 |  |
| LC-2-ad | 0.692 | 0.719 | 0.689 | 0.521 |  | 0.357 | 0.379 | 0.311 | 0.535 | 0.601 | 0.592 | 0.602 | 0.588 | 0.843 | 0.844 | 0.887 | 0.833 | 1.01 | 0.465 |  |
| LCLC-97TM1 |  | 0.857 | 0.852 | 0.726 | 0.293 | 0.178 | 0.177 | 0.217 | 0.471 | 0.483 | 0.407 | 0.383 | 0.396 | 0.187 | 0.226 | 0.199 | 0.179 | 0.186 |  | 0.148 |
| LCLC-103H | 0.565 | 0.884 | 0.782 | 0.761 | 0.462 | 0.452 | 0.485 | 0.46 | 0.366 | 0.255 | 0.332 | 0.289 | 0.35 | 1.27 | 1.08 | 1.05 | 1.05 | 1.03 | 0.733 | 0.396 |
| LK-2 | 0.29 | 0.257 | 0.255 | 0.353 | 0.188 | 0.134 | 0.146 | 0.152 | 0.461 | 0.483 | 0.443 | 0.463 | 0.828 | 0.543 | 0.471 |  | 0.439 | 0.415 | 0.256 |  |
| LOU-NH91 | 0.8 | 0.868 | 0.821 | 0.739 | 0.663 | 0.612 | 0.637 | 0.578 | 0.637 | 0.663 | 0.73 | 0.748 | 0.673 | 1.08 | 0.595 | 0.997 | 0.948 | 0.961 | 0.597 | 0.543 |
| LU99A | 0.491 | 0.646 | 0.373 | 0.463 | 0.304 | 0.259 | 0.31 | 0.25 | 0.806 | 0.856 | 0.835 | 0.801 | 0.827 | 0.611 | 0.561 | 0.5 | 0.483 | 0.553 |  | 0.286 |
| LXF-289 | 0.718 | 0.805 | 0.79 | 0.782 | 0.209 | 0.172 | 0.174 | 0.14 | 0.523 | 0.533 | 0.534 | 0.532 | 0.54 | 0.991 | 0.952 | 0.972 | 0.962 | 0.968 | 0.662 | 0.147 |
| NCI-H522 | 0.777 | 0.992 | 0.993 | 0.919 | 0.585 | 0.55 | 0.592 | 0.593 | 0.598 | 0.733 | 0.729 | 0.722 | 0.674 |  |  |  |  |  | 0.759 | 0.522 |
| NCI-H1299 |  |  |  |  |  |  |  |  |  |  |  |  |  | 0.962 | 1.03 | 0.978 | 1 | 1.06 |  |  |
| NCI-H1563 |  |  |  |  |  |  |  |  | 0.671 | 0.742 | 0.671 | 0.671 | 0.618 | 1.23 | 1.11 | 1.12 | 0.99 | 1.22 |  |  |
| NCI-H1623 |  |  |  |  | 0.42 | 0.528 | 0.432 | 0.349 | 0.607 | 0.497 | 0.621 | 0.641 | 0.563 |  |  |  |  |  |  | 0.358 |
| NCI-H1648 | 0.523 | 0.473 | 0.378 | 0.421 | 0.592 | 0.513 | 0.393 | 0.421 |  |  |  |  |  |  |  |  |  |  | 0.347 | 0.47 |
| NCI-H1650 | 0.527 | 0.596 | 0.332 | 0.373 |  | 0.346 | 0.22 | 0.31 | 0.368 | 0.477 | 0.583 | 0.43 | 0.394 |  |  |  |  |  | 0.382 | 0.261 |
| NCI-H1703 |  |  |  |  |  |  |  |  |  |  |  |  |  | 0.888 | 0.461 | 0.12 | 0.148 | 0.164 |  |  |
| NCI-H1792 |  |  |  |  |  |  |  |  | 0.293 | 0.293 | 0.326 | 0.193 | 0.248 | 0.575 | 0.629 | 0.527 | 0.557 | 0.504 |  |  |
| NCI-H2170 | 0.791 | 0.873 | 0.837 | 0.842 | 0.624 | 0.704 | 0.602 | 0.462 | 0.402 | 0.429 | 0.456 | 0.389 | 0.435 |  |  |  |  |  | 0.681 | 0.541 |
| NCI-H2342 | 0.746 | 0.632 | 0.769 | 0.741 | 0.514 | 0.486 | 0.494 | 0.454 | 0.564 | 0.581 | 0.611 | 0.617 | 0.611 |  |  |  |  |  | 0.815 | 0.453 |
| SW 900 | 0.527 | 0.277 | 0.432 | 0.377 | 0.53 | 0.358 | 0.372 | 0.364 | 0.396 | 0.588 | 0.557 | 0.648 | 0.458 |  |  |  |  |  | 0.36 | 0.27 |
